Results: PMC12216609, “Inhibitors of eIF1A-ribosome interaction unveil uORF-dependent regulation of translation initiation and antitumor and antiviral effects” (The EMBO Journal, 2025)
Values joined by “and” are separate entries in the source; they are usually repeats but may differ in a detail not shown here. Equal entries are not always repeated. Where two headings read alike, the source gives them in different places.

Experiments:
NSP1 = NSP1 (Severe acute respiratory syndrome coronavirus 2, UniProt P0DTD1)
[1] = test system: IRF7 5'UTR firefly luciferase reporter in HEK293T cells; conditions: for Reference vs IRF7 (Final data, Fig. 1E): 1/Result, relative to DMSO; for LONG (summary - All), normalized to DMSO / SHORT (summary - All), normalized to DMSO: individual replicates, outliers excluded, DMSO = 1; for average ( long vs short ratio): summary - All;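 as to all read-outs here: luciferase signal corrected by a co-transfected GFP reporter for transfection efficiency, read after overnight compound exposure, with Long and Short reporters differing in 5'UTR length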
[2] = test system: cap-proximal AUG GFP reporter in HEK293T cells; assay type: cell-based; conditions: GFP WB densitometry; 20 µM overnight; dmso 0.965946;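 also: ratio of upstream to downstream AUG initiation products on GFP Western blot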
[3] = test system: regulatory CUG of SARS-CoV-2 ORF7a 5'UTR in HEK293T cells; assay type: cell-based; conditions: for average (inverted): normalized to DMSO = 1.000, mean of 3 reps; for CUG/AUG ratio (Renilla/firefly): overnight; for FF CTG signal, mean of duplicates / FF vs Rluc / FF vs Rluc, inverted / Rluc ATG signal, mean of duplicates / normalized to DMSO: reps 1-3; for normalized to DMSO: DMSO = 1

O=c1cc(CN2CCOCC2)occ1OCCCCCSc1ccnc2cc(C(F)(F)F)ccc12 [1Ai-5730]
GFP reporter ratio nsp1/gfp, avg (NSP1): 0.5107
GFP reporter ratio nsp1/gfp, rep 1 (NSP1): 0.524
gfp signal, mean of duplicate wells (NSP1): 1636.5
nsp1 signal, mean of duplicate wells (NSP1): 857.5
ratio (nsp1/gfp) (NSP1): 0.524
Reference vs IRF7 (Final data, Fig. 1E) ([1]; 20 µM): 1.720
LONG (summary - All), normalized to DMSO ([1]; Long reporter, 10 µM): 0.65 and 0.52 and 0.40 and 0.70
SHORT (summary - All), normalized to DMSO ([1]; Short reporter, 10 µM): 0.89 and 1.17 and 0.87
Long 5'UTR reporter luciferase activity, normalized to DMSO (=1), single replicates ([1]; compound at 10 µM, left data block (Long), source data of Fig 1C): 0.6956
Short: Normalized to average DMSO ([1]; data section, Short reporter, GFP-corrected, 10 µM, per experiment): 0.892 and 1.021 and 1.1679
average ( long vs short ratio) ([1]; 10 µM): 0.581
US/DS ratio, average [2]: 0.4467
average (inverted) [3]: 0.744
CUG/AUG ratio (Renilla/firefly) [3]: decreased the CUG/AUG ratio to variable degrees
FF CTG signal, mean of duplicates [3]: 5472.4 and 6803.94 and 6446.76
FF vs Rluc [3]: 54.969 and 55.654 and 55.147
FF vs Rluc, inverted [3]: 0.018
Rluc ATG signal, mean of duplicates [3]: 2604320 and 3030300 and 3158315
normalized to DMSO [3]: 0.748 and 0.739 and 0.745

Cc1ccc(C)n1-c1cc([N+](=O)[O-])ccc1N1CCN(C(=O)c2ccccc2)CC1 [1Ai-9008]
GFP reporter ratio nsp1/gfp, avg (NSP1): 0.4707
GFP reporter ratio nsp1/gfp, rep 1 (NSP1): 0.4454
GFP reporter ratio nsp1/gfp, rep 2 (NSP1): 0.4961
gfp signal, mean of duplicate wells (NSP1): 2743.5 and 4942
nsp1 signal, mean of duplicate wells (NSP1): 1361 and 2201
ratio (nsp1/gfp) (NSP1): 0.496 and 0.445
Reference vs IRF7 (Final data, Fig. 1E) ([1]; 20 µM): 0.775
LONG (summary - All), normalized to DMSO ([1]; Long reporter, 20 µM): 0.81 and 0.44 and 0.52 and 0.48
SHORT (summary - All), normalized to DMSO ([1]; Short reporter, 20 µM): 0.66 and 0.59 and 0.24 and 0.26
Long: Normalized to average DMSO ([1]; data section, Long reporter, GFP-corrected, 20 µM, per experiment, includes values excluded as outliers): 0.8135 and 0.4384 and 0.5246 and 0.4822
average ( long vs short ratio) ([1]; 20 µM): 1.290
US/DS ratio, average [2]: 0.5847
average (inverted) [3]: 0.875
CUG/AUG ratio (Renilla/firefly) [3]: decreased the CUG/AUG ratio to variable degrees
FF CTG signal, mean of duplicates [3]: 19795.8 and 14760.8 and 12081.3
FF vs Rluc [3]: 47.590 and 44.537 and 48.991
FF vs Rluc, inverted [3]: 0.021 and 0.022 and 0.020
Rluc ATG signal, mean of duplicates [3]: 10881500 and 8214985 and 6662440
normalized to DMSO [3]: 0.864 and 0.923 and 0.839
